By IC50 is commonly meant the concentration at which inhibition is half-maximal.

The source of these data is patent US12692223B2, “Phenyl-sulfamoyl-benzoic acid derivatives as ERAP1-modulators” (GREY WOLF THERAPEUTICS LIMITED, priority 2021, dated 2026).

Some results are limits rather than exact numbers.

In this assay the target is T1, ERAP1 (Homo sapiens, UniProt Q9NZ08).
T1 construct: Purified ERAP1(37-941)-10His (ERAP1)
T1 sequence (Q9NZ08 37-941): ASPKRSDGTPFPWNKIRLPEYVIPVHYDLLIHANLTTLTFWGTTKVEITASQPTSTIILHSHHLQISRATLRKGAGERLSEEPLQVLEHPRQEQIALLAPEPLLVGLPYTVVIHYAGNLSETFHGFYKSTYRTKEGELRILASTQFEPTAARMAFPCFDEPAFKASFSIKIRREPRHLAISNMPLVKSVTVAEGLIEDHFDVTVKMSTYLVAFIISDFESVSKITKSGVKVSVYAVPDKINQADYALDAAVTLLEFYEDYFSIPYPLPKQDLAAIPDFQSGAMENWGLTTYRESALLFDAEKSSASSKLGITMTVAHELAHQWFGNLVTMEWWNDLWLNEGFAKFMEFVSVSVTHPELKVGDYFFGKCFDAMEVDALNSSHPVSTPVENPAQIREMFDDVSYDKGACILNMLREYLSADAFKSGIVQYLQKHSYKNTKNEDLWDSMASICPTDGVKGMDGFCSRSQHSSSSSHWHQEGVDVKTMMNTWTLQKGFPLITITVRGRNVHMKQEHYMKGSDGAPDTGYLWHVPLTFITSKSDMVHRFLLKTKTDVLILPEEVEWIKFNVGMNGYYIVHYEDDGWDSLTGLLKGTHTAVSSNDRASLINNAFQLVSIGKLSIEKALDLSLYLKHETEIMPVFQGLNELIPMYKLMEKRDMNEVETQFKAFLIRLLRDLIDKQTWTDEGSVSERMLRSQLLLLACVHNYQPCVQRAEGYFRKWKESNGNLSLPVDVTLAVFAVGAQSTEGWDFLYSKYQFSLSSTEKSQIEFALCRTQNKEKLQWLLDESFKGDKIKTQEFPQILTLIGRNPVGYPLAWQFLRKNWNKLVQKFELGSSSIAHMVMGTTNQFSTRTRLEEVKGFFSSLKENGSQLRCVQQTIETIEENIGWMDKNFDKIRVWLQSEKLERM
Kind of assay: ERAP1 mediated hydrolysis of an amide substrate measured in a biochemical system (10-mer inhibition assay). The conditions noted are these: purified ERAP1(37-941)-10His; 10-mer substrate; 23° C. for 1 h; excitation 279 nm, emission 355 nm; read-out: IC50 vs Decapeptide WRVYEKC(Dnp)ALK-acid (where Dnp is Dinitrophenyl maleimide) (10-mer). An outline of the steps:
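Purified ERAP1(37-941)-10His in 25 mM Bis-tris propane, 0.05% HPMC, pH 7.75, with compound, then 100 μM 10-mer WRVYEKC(Dnp)ALK or 240 μM L-AMC added (stock concentrations before 1:1 mixing), 1 h at 23 °C. Fluorescence read at ex 279/em 355 nm (10-mer) or ex 365/em 442 nm (L-AMC); IC50 from 4-parameter fit.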
In the case of `N#Cc1cc(NS(=O)(=O)c2cc(C(=O)O)ccc2C2CC2)c(OC2CCC2C2CC2)cc1Cl` (single isomer, unassigned) [Example 130, 3-(N-(4-chloro-5-cyano-2-(2-cyclopropylcyclobutoxy)phenyl)sulfamoyl)-4-cyclopropylbenzoic acid], the IC50 is 1 to 5 nM.

Regarding `CC1(COc2cc(Cl)c(C#N)cc2NS(=O)(=O)c2cc(C(=O)O)ccc2C2CC2)COC1` [Example 32, 3-(N-(4-chloro-5-cyano-2-((3-methyloxetan-3-yl)methoxy)phenyl)sulfamoyl)-4-cyclopropylbenzoic acid], the half-maximal inhibitory concentration (IC50) was in the range of 1 to 5 nM.

Turning to `CO[C@H]1C[C@H](Oc2cc(Cl)c(C#N)cc2NS(=O)(=O)c2cc(C(=O)O)ccc2C2CC2)C1` [Example 95, 3-(N-(4-chloro-5-cyano-2-(trans-3-methoxycyclobutoxy)phenyl)sulfamoyl)-4-cyclopropylbenzoic acid], the half-inhibitory concentration (IC50) is above 5 nM.

Regarding `CC1CCC1Oc1cc(Cl)c(C#N)cc1NS(=O)(=O)c1cc(C(=O)O)ccc1C1CC1` (single isomer, unassigned) [Example 123, 3-(N-(4-chloro-5-cyano-2-(2-methylcyclobutoxy)phenyl)sulfamoyl)-4-cyclopropylbenzoic acid], the IC50 is below 1 nM.

In the case of `CC(Oc1cc(Cl)c(C#N)cc1NS(=O)(=O)c1cc(C(=O)O)ccc1C1CC1)C1COC1` (centres unmarked) [Example 45, 3-(N-(4-chloro-5-cyano-2-(1-(oxetan-3-yl)ethoxy)phenyl)sulfamoyl)-4-cyclopropylbenzoic acid], the half-maximal inhibitory concentration (IC50) lay within 1 to 5 nM.

Turning to `N#Cc1cc(NS(=O)(=O)c2cc(C(=O)O)ccc2C2CC2)c(OCC2COC2)cc1Cl` [Example 36, 3-(N-(4-chloro-5-cyano-2-(oxetan-3-ylmethoxy)phenyl)sulfamoyl)-4-cyclopropylbenzoic acid], the 50% inhibitory concentration (IC50) lay within 1 to 5 nM.

With `N#Cc1cc(NS(=O)(=O)c2cc(C(=O)O)ccc2C2CC2)c(OCC2(F)COC2)cc1Cl` [Example 37, 3-(N-(4-chloro-5-cyano-2-((3-fluorooxetan-3-yl)methoxy)phenyl)sulfamoyl)-4-cyclopropylbenzoic acid], the half-inhibitory concentration (IC50) lay within 1 to 5 nM.

`C#CC1CCCC1Oc1cc(Cl)c(C#N)cc1NS(=O)(=O)c1cc(C(=O)O)ccc1C1CC1` (racemic) [Example 84, 3-(N-(4-chloro-5-cyano-2-((trans-2-ethynylcyclopentyl)oxy)phenyl)sulfamoyl)-4-cyclopropylbenzoic acid]: the IC50 is below 1 nM.

Regarding `COC1CCC1Oc1cc(Cl)c(C#N)cc1NS(=O)(=O)c1cc(C(=O)O)ccc1C1CC1` (single isomer, unassigned) [Example 138, 3-(N-(4-chloro-5-cyano-2-(trans-2-methoxycyclobutoxy)phenyl)sulfamoyl)-4-cyclopropylbenzoic acid], the IC50 was below 1 nM.

Regarding `CC1CC(COc2cc(Cl)c(C#N)cc2NS(=O)(=O)c2cc(C(=O)O)ccc2C2CC2)C1` (mixture of isomers) [Example 89, 3-(N-(4-chloro-5-cyano-2-((3-methylcyclobutyl)methoxy)phenyl)sulfamoyl)-4-cyclopropylbenzoic acid], the concentration for half-maximal inhibition (IC50) was below 1 nM.

Regarding `O=C(O)c1ccc(C2CC2)c(S(=O)(=O)Nc2cc(-n3cnnn3)c(F)cc2OC2CCCC2)c1` [Example 9, 3-(N-(2-(cyclopentyloxy)-4-fluoro-5-(1H-tetrazol-1-yl)phenyl)sulfamoyl)-4-cyclopropylbenzoic acid], the concentration for half-maximal inhibition (IC50) is below 1 nM.

On to `CCc1ccc(C(=O)O)cc1S(=O)(=O)Nc1cc(C(F)(F)F)ccc1OC1CCC1` [Example 7, 3-(N-(2-cyclobutoxy-5-(trifluoromethyl)phenyl)sulfamoyl)-4-ethylbenzoic acid], for which the IC50 was above 5 nM.

For `N#Cc1cc(NS(=O)(=O)c2cc(C(=O)O)ccc2C2CC2)c(O[C@H]2C[C@H](C(F)(F)F)C2)cc1Cl` [Example 40, 3-(N-(4-chloro-5-cyano-2-((trans)−3-(trifluoromethyl)cyclobutoxy)phenyl)sulfamoyl)-4-cyclopropylbenzoic acid], the IC50 is 1 to 5 nM.

For `CC1(C)CC(COc2cc(Cl)c(C#N)cc2NS(=O)(=O)c2cc(C(=O)O)ccc2C2CC2)C1` [Example 75, 3-(N-(4-chloro-5-cyano-2-((3,3-dimethylcyclobutyl)methoxy)phenyl)sulfamoyl)-4-cyclopropylbenzoic acid], the half-maximal inhibitory concentration (IC50) lay within 1 to 5 nM.

For `C#CC1CCCC1Oc1cc(Cl)c(C#N)cc1NS(=O)(=O)c1cc(C(=O)O)ccc1C1CC1` (single isomer, unassigned) [Example 117, 3-(N-(4-chloro-5-cyano-2-((trans-2-ethynylcyclopentyl)oxy)phenyl)sulfamoyl)-4-cyclopropylbenzoic acid], the IC50 was below 1 nM.

Turning to `C[C@H](Oc1cc(Cl)c(C#N)cc1NS(=O)(=O)c1cc(C(=O)O)ccc1C1CC1)C1CCC1` [Example 70, (S)-3-(N-(4-chloro-5-cyano-2-(1-cyclobutylethoxy)phenyl)sulfamoyl)-4-cyclopropylbenzoic acid], the half-inhibitory concentration (IC50) is below 1 nM.

Regarding `Cc1cc(C2CC2)c(S(=O)(=O)Nc2cc(C#N)c(Cl)cc2OC2CCCC2)cc1C(=O)O` [Example 26, 5-(N-(4-chloro-5-cyano-2-(cyclopentyloxy)phenyl)sulfamoyl)-4-cyclopropyl-2-methylbenzoic acid], the half-inhibitory concentration (IC50) was 1 to 5 nM.

With `CC1(C)CCC[C@H]1Oc1cc(F)c(-n2cnnn2)cc1NS(=O)(=O)c1cc(C(=O)O)ccc1C1CC1` [Example 125, (R)-4-cyclopropyl-3-(N-(2-((2,2-dimethylcyclopentyl)oxy)-4-fluoro-5-(1H-tetrazol-1-yl)phenyl)sulfamoyl)benzoic acid], the concentration for half-maximal inhibition (IC50) is below 1 nM.

In the case of `O=C(O)c1ccc(C2CC2)c(S(=O)(=O)Nc2cc(-n3cnnn3)c(Cl)cc2OC2CCCC2)c1` [Example 10, 3-(N-(4-chloro-2-(cyclopentyloxy)−5-(1H-tetrazol-1-yl)phenyl)sulfamoyl)-4-cyclopropylbenzoic acid], the concentration for half-maximal inhibition (IC50) was below 1 nM.

As for `COC1CCCC1Oc1cc(Cl)c(C#N)cc1NS(=O)(=O)c1cc(C(=O)O)ccc1C1CC1` (single isomer, unassigned) [Example 103, 3-(N-(4-chloro-5-cyano-2-((trans-2-methoxycyclopentyl)-oxy)phenyl)sulfamoyl)-4-cyclopropylbenzoic acid], the half-inhibitory concentration (IC50) was below 1 nM.

For `N#Cc1cc(NS(=O)(=O)c2cc(C(=O)O)ccc2C2CC2)c(OCC23CC(C2)C3)cc1Cl` [Example 76, 3-(N-(2-(bicyclo[1.1.1]pentan-1-ylmethoxy)− 4-chloro-5-cyanophenyl)sulfamoyl)-4-cyclopropylbenzoic acid], the IC50 was below 1 nM.

For the compound `N#Cc1cc(NS(=O)(=O)c2cc(C(=O)O)ccc2C2CC2)c(O[C@H]2CCOC2)cc1Cl` [Example 49, (S)-3-(N-(4-chloro-5-cyano-2-((tetrahydrofuran-3-yl)oxy)phenyl)sulfamoyl)-4-cyclopropylbenzoic acid], the IC50 lay within 1 to 5 nM.

`O=C(O)c1ccc(C2CC2)c(S(=O)(=O)Nc2cc(-c3ccns3)ccc2OC2CCCC2)c1` [Example 20, 3-(N-(2-(cyclopentyloxy)-5-(isothiazol-5-yl)phenyl)sulfamoyl)-4-cyclopropylbenzoic acid]: the IC50 is below 1 nM.

`N#Cc1cc(NS(=O)(=O)c2c(C3CC3)ccc(C(=O)O)c2F)c(OC2CCCC2)cc1Cl` [Example 67, 3-(N-(4-chloro-5-cyano-2-(cyclopentyloxy)phenyl)sulfamoyl)-4-cyclopropyl-2-fluorobenzoic acid]: the IC50 is above 5 nM.

Take `CO[C@@H]1CCC[C@@H]1Oc1cc(Cl)c(C#N)cc1NS(=O)(=O)c1cc(C(=O)O)ccc1C1CC1` (single isomer, unassigned) [Example 143, 3-(N-(4-chloro-5-cyano-2-((cis-2-methoxycyclopentyl)oxy)phenyl)sulfa-moyl)-4-cyclopropylbenzoic acid]: the IC50 was 1 to 5 nM.

With `N#Cc1cc(NS(=O)(=O)c2cc(C(=O)O)ccc2C2CC2)c(OC2CC3(CC3)C2)cc1Cl` [Example 34, 3-(N-(4-chloro-5-cyano-2-(spiro[2.3]hexan-5-yloxy)phenyl)sulfamoyl)-4-cyclopropylbenzoic acid], the IC50 was below 1 nM.

With `CN1CC(COc2cc(Cl)c(C#N)cc2NS(=O)(=O)c2cc(C(=O)O)ccc2C2CC2)C1` [Example 38, 3-(N-(4-chloro-5-cyano-2-((1-methylazetidin-3-yl)methoxy)phenyl)sulfamoyl)-4-cyclopropylbenzoic acid], the IC50 was above 5 nM.

In the case of `N#Cc1cc(NS(=O)(=O)c2cc(C(=O)O)ccc2C2CC2)c(OC2CCC23CCC3)cc1Cl` (centres unmarked) [Example 77, 3-(N-(4-chloro-5-cyano-2-(spiro[3.3]heptan-1-yloxy)phenyl)sulfamoyl)-4-cyclopropylbenzoic acid], the IC50 was below 1 nM.

`COC1(COc2cc(Cl)c(C#N)cc2NS(=O)(=O)c2cc(C(=O)O)ccc2C2CC2)CCC1` [Example 87, 3-(N-(4-chloro-5-cyano-2-((1-methoxycyclobutyl)methoxy)phenyl)sulfamoyl)-4-cyclopropylbenzoic acid]: the half-inhibitory concentration (IC50) is below 1 nM.
